Data published in patent publication US10076527B2, “Standardized extract and its use in the manufacture of a medicament” (priority 2006, dated 2018).

Experiments:
conscious cats = details: intravenous injection; cited from earlier work
conscious dogs = details: intravenous injection; cited from earlier work
anesthetized dogs = details: intravenous injection; cited from earlier work
[1] = test system: isolated guinea pig ileum; details: concentration of 54 mg/ml; cited from earlier work
normal mice = experiment: Excretion promotion study in normal mice (India ink); assay type: in vivo, ICR mice; details: positive control, hypodermic injection 0.1 ml/10 g, p<0.01
Procedure: In this experiment, 50 male ICR mice weighing 23-27 g respectively were divided randomly into 5 groups with 10 per group, i.e. normal control, positive control and three dose groups at 2.48 mg/kg, 4.96 mg/kg and 9.92 mg/kg, respectively. They were fasted for 24 hours before the experiment.
The mice in the positive control group were given an injection of 0.1 ml/10 g body weight of Neostigmine hypodermically while the mice in the normal control groups were given rectal administrations of saline of 0.02 ml/10 g body weight. The mice in the three dose groups were given rectal administrations of the Muskmelon-Base extract (diluted with saline to give desired doses and given 0.02 ml/10 g body weight).
After medication, all the mice were intra-gastrically given infusions of India ink (10% ink, diluted with saline, at the dose 0.02 ml/10 g of body weight). The mice were individually put into a cage with white filter paper flooring. The time of excretion and quantity of the feces were recorded during 4-hour observation periods.

[2] = test system: mice with gastrointestinal hypo-function induced by atropine; experiment: Intestine enterokinesia in mice with gastrointestinal hypo-function induced by atropine; assay type: in vivo, ICR mice; details: extract high dose rectal; Neostigmine 0.15 mg/kg hypodermic
Procedure: In this experiment, 66 male ICR mice weighing 22-26 g respectively were divided randomly into 6 groups with 11 per group. They were fasted for 24 hours before the experiment. The 6 groups were named as: • Normal control group, • Model group, • Positive control group, and • The three dose groups.
The mice in the normal control group were only injected saline at 0.1 ml/10 g and mice in all other groups were injected 0.25 mg/kg of Atropine hypodermic at 0.1 ml/10 g body weight.
Twenty minutes after injection Muskmelon-Base extract (diluted with the saline) was given to the mice at the doses of […] by rectal administration and saline solution was given to the mice in normal, control and the model groups. Neostigmine hypodermic injection (0.15 mg/kg) was given to the mice in the positive control group at the dose 0.1 ml/10 g body weight. A further 20 minutes later, an intragastric administration of 10% ink was given to all the mice at the dose 0.2 ml/10 g body weight.
All the mice were killed and laparotomized in 90 minutes. The intestine from the pylorus to the anus was taken out to measure the whole length of the alimentary tract. The distance from the pylorus to the front the ink impelled was measured to calculate the impelling percentage.

Compound	diarrhea (conscious cats)	diarrhea (conscious dogs)	enterokinesia (anesthetized dogs)	effect on isolated guinea pig ileum [1]	quantity of the feces increased vs normal control (normal mice; 4-hour observation) [%]	duration for the first excretion of black feces shortened vs normal control (normal mice) [%]	muscle spasm side effect [2]
CC(C)(O)/C=C/C(=O)[C@](C)(O)[C@H]1[C@H](O)C[C@@]2(C)[C@@H]3CC=C4[C@@H](C[C@H](O)C(=O)C4(C)C)[C@]3(C)C(=O)C[C@]12C [Cucurbitacin D]	induced diarrhea	induced diarrhea	stimulated enterokinesia	did not cause any visible effect	–	–	–
CN(C)C(=O)Oc1cccc([N+](C)(C)C)c1 [Neostigmine]	–	–	–	–	49	53	always found in all mice
